{"source": "patent US9642922B2", "about": "“Caspase-triggered nano-aggregation probes and methods of use” (The Board of Trustees of the Leland Stanford Junior …, priority 2013, dated 2017)", "molecules": {"B1": {"name": "[^18F]Annexin V: known apoptosis PET tracer, PS binding (protein, UniProt P08758 2-320, looked up)", "Annexin A5": "AQVLRGTVTDFPGFDERADAETLRKAMKGLGTDEESILTLLTSRSNAQRQEISAAFKTLFGRDLLDDLKSELTGKFEKLIVALMKPSRLYDAYELKHALKGAGTNEKVLTEIIASRTPEELRAIKQVYEEEYGSSLEDDVVGDTSGYYQRMLVVLLQANRDPDAGIDEAQVEQDAQALFQAGELKWGTDEEKFITIFGTRSVSHLRKVFDKYMTISGFQIEETIDRETSGNLEQLLLAVVKSIRSIPAYLAETLYYAMKGAGTDDHTLIRVMVSRSEIDLFNIRKEFRKNFATSLYSMIKGDTSGDYKKALLLLCGEDD", "modifications": "18F radiolabel"}}, "key": {"[1]": {"molecular_target": "T1, caspase-3 (Homo sapiens, UniProt P42574)", "T1 sequence (P42574 29-175 limits assumed)": "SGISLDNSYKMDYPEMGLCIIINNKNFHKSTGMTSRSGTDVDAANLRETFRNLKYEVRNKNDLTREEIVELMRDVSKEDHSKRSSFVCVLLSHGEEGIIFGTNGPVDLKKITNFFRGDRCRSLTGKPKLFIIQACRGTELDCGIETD", "T1 sequence (P42574 176-277 limits assumed)": "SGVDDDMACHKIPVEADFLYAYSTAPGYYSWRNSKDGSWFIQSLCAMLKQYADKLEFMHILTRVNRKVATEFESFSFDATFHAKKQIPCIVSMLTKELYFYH", "assay": "HPLC assay of caspase-3-triggered macrocyclization of C-SNAF", "format": "biochemical", "design": "purchased Sigma; host or cells: E. coli", "conditions": "same conditions as C-SNAF; D-ctrl after 24 h", "experimental": "The progression of caspase-3-triggered macrocyclization of C-SNAF to form C-SNAF-cycl in solution was monitored using high-performance liquid chromatography (HPLC) following incubation of the probe (25 μM) with recombinant human caspase-3 (4.9×10^−[…]).\nCaspase (human, recombinant from E. coli) assays were performed for caspase-3 (4.9×10^−3 U; 7.35×10^−4 mg, Sigma), −7 (18.3 U; 7.35×10^−4 mg, Calbiochem), and −9 (0.3 U; 7.35×10^−4 mg, Calbiochem). All caspase assays were conducted in caspase buffer with 50 mM HEPES, 100 mM NaCl, 1 mM EDTA, 10 mM TCEP, 10% glycerol, and 0.1% CHAPS at pH 7.4. Cathepsin B (human liver; 0.27 U; 7.35×10^−4 mg, Calbiochem) and Legumain (human, recombinant from mouse myeloma cell line; >250 pmol/min/μg; 7.35×10^−4 mg, R&D Systems) were conducted in reaction buffer with 50 mM sodium acetate, 50 mM NaCl, 0.5 mM EDTA and 10 mM TCEP at pH 5.5. C-SNAF was diluted in the respective enzyme reaction buffer (25 μM, 1 mL) and remained at room temperature for 10 min, to which was then added the respective enzymes. Reactions were performed at 37° C., and monitored by HPLC hourly. The percentage conversion of the reaction was calculated based on the percentage of peak area of C-SNAF-cycl in the HPLC trace at 675 nm UV detection, which indicated the efficacy of enzyme cleavage of C-SNAF."}, "[2]": {"system": "subcutaneous HeLa tumors", "assay": "In vivo fluorescence imaging of DOX-treated HeLa tumor-bearing mice", "design": "species or system mouse", "experimental": "C-SNAF or either of the control probes (5 nmol) was administered intravenously to tumor-bearing mice and whole animal fluorescence was longitudinally monitored using a Maestro fluorescence imager.\nTo establish tumors in 6-week-old female nu/nu mice, 2×10^6 HeLa cells suspended in 50 μL of a 50% v/v mixture of Matrigel in supplemented DMEM (10% FBS, 1% penstrep) were injected subcutaneously in the shoulders of the mouse. Tumors were grown until a single aspect was 0.7 to 0.9 cm (approximately 10-15 days), and then treatment consisting of 8 mg/kg DOX or saline was initiated. Treatments were administered intravenously once every 4 d for a total of three times. Total mouse body weight and tumor size (width and length by caliper) was measured every other day. Tumor volumes were calculated assuming ellipsoid shape with the formula (l×w^2)/2.\nTwo days following the final treatment, 5 nmol probe in saline was injected intravenously and fluorescence imaging began immediately on a Maestro hyperspectral fluorescent imaging system (PerkinElmer, Mass., USA) using a 635±25 nm excitation filter and a 675 nm long-pass emission filter, with images acquired from 670 to 900 nm. Tissue autofluorescence and Cy5.5 fluorescence were deconvolved, and tumor fluorescence intensity was quantified by region of interest measurement using Nuance v.3.0.1.2 software (Perkin Elmer, Mass., USA)."}, "[3]": {"system": "apoptotic HeLa cells", "assay": "Epifluorescence microscopy of apoptotic HeLa cells labeled with probes", "format": "cell-based, human", "conditions": "microscopy, 2 μM probe", "experimental": "After removal of the medium, the cells were incubated with C-SNAF, L-ctrl, or D-ctrl at 2 μM for 24 h. Some cells were first incubated with caspase inhibitor (Z-VAD-fmk, 50 μM) for 30 min, followed by incubating with 2 μM C-SNAF for 24 h. The cells were carefully washed with PBS (1×) three times, and stained with Hoechst 33342 (2 μM) at 37° C. for 30 min. After rinses with PBS (1×) several times, the medium was replaced and the fluorescence images were acquired with DAPI and Cy5.5 filters. The images were processed using the standard CRi Nuance software, analyzed using Image J software package (NIH), and presented at the same intensity scale for comparison.\nHeLa cells in #1.5 borosilicate 8-well chambered coverslips (Nunc) were either incubated with C-SNAF (2 μM) alone or co-incubated with DOX (1, 2, and 5 μM) and 2 μM C-SNAF, 2 μM C-SNAF together with caspase inhibitor (Z-VAD-fmk, 50 μM), or control probes D-ctrl and L-ctrl at 2 μM for 24 h. Then the medium was removed, the cells were carefully washed with PBS (1×) three times, and stained with nuclear binding probe Hoechst 33342 (2 μM) at 37° C. for 30 min. After several rinses with PBS (1×), the medium was replaced and the fluorescence images were acquired with DAPI and […] filters."}, "[4]": {"system": "STS-induced apoptotic HeLa cells", "assay": "Flow cytometry of STS-induced apoptotic HeLa cells labeled with probes", "format": "cell-based, human", "conditions": "2 μM probe, compared with C-SNAF", "experimental": "Approximately 10^5 HeLa cells in 1 mL DMEM medium were seeded onto 12-well plates. […] For the inhibitor blocking experiment, the STS-treated cells were first incubated with the caspase inhibitor Z-VAD-fmk (50 μM, R&D Systems) for 30 min, and then 2 μM C-SNAF was added. All cells incubations were 24 h, followed by staining with FLICA (FAM) after trypsinization. After washing with PBS (1×) three times, the cell pellets were resuspended in 300 μL PBS and applied for flow cytometry analysis using the FITC and Cy5.5 channels. The cell number for each flow cytometry analysis was approximately 5000 to 10000, and the data was processed using FlowJo software."}, "[5]": {"molecular_target": "T2, Caspase-3 (Mus musculus, UniProt P70677)", "T2 sequence (P70677 29-175 limits assumed)": "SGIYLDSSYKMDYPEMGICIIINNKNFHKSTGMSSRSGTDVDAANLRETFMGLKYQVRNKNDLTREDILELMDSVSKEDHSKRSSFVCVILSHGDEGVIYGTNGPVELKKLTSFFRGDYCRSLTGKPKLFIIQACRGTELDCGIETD", "T2 sequence (P70677 176-277 limits assumed)": "T1 sequence (P42574 176-277 limits assumed) with V3T, D5E, D6E, H10Q, A46S, Q50L, D53H, F77L, A79S", "conditions": "cited from earlier work"}, "[6]": {"system": "PS binding", "conditions": "cited from earlier work"}}, "note": "Where a chain is given by its changes, count along the chain named. Marks after values point to notes of the source that are not given here.", "data": [{"molecule": "CC[N+]1=C(C=CC=CC=C2N(CCCCCC(=O)NCCCCC(NC(=O)C(CSC)NC(=O)C(CC(=O)O)NC(=O)C(NC(=O)C(CCC(=O)O)NC(=O)C(CC(=O)O)NC(C)=O)C(C)C)C(=O)Nc3ccc4nc(C5=NC(C(=O)NCCCOc6ccc7ncccc7c6)CS5)sc4c3)c3ccc4c(S(=O)(=O)O)cc(S(=O)(=O)O)cc4c3C2(C)C)C(C)(C)c2c1ccc1c(S(=O)(=O)O)cc(S(=O)(=O)[O-])cc21", "note": "[D-ctrl]", "values": [{"measurement": "products observed after incubation with caspase-3", "setting": "[1]", "value": "no new products were observed"}, {"measurement": "correlation (r) of maximum tumor fluorescence with maximum tumor size change", "setting": "[2]; 3×DOX-treated mice, 1 h after probe", "value": "no significant correlation"}, {"measurement": "average signal enhancement between DOX- and saline-treated tumors", "setting": "[2]; 4 h after probe administration", "value": "−12", "unit": "%"}, {"measurement": "tumor fluorescence lower than that of C-SNAF", "setting": "[2]; DOX-treated mice, 1 h", "value": 10, "unit": "%"}, {"measurement": "fluorescence of apoptotic cells compared to C-SNAF", "setting": "[3]", "value": "relatively weaker fluorescence"}, {"measurement": "fluorescent intensity of apoptotic cells incubated with control probes", "setting": "[4]", "value": "much lower fluorescent intensity"}]}, {"molecule": "O=C1C(=O)N(Cc2cn(CC[18F])nn2)c2ccc(S(=O)(=O)N3CCCC3COc3ccc(F)cc3F)cc21", "note": "(stereo not drawn) [[^18F]ICMT-11]", "values": [{"measurement": "Target/Background (Tumor/blood)", "setting": "[5]; Tumor/blood", "value": "1.2^c"}, {"measurement": "time course of uptake at the apoptotic tumors", "setting": "[5]; mouse, in vivo", "value": "decreased over the time after injection"}, {"measurement": "Treated/Untreated", "setting": "[5]; treated and untreated group in different animal", "value": "1.5^d"}]}, {"molecule": "B1", "values": [{"measurement": "% ID/g at target site", "setting": "[6]; PET imaging", "value": "1.56 ± 0.2", "unit": "% ID/g"}, {"measurement": "Target/Background", "setting": "[6]; maximum value at the apoptotic tissue", "value": 3.4}, {"measurement": "Treated/Untreated", "setting": "[6]; pre and post treatment in same animal", "value": "1.6^b"}]}]}
